Two compounds from patent US20060057732A1, “Methods in the diagnosis of pulmonary embolism” (Aerocrine AB, priority 2004, published 2006) can be followed below.

One data set relates to NO-production. In words: L-NAME pre-treatment (inhibited NO-production) before and during muscle emboli challenge in anaesthetised rabbits (Group 2). The format is in vivo. On the procedure:
The experiments were approved by the local animal ethics committee. Male white New Zealand rabbits (n=20, body weight 2.456±0.086 kg) were anaesthetised via an ear vein with sodium pentobarbital, 6 mg ml^−1 in normal saline, 40-60 mg kg^−1. The animals were placed in supine position and tracheotomised just below the cricoid cartilage to allow mechanical ventilation using a tracheal cannula with an outer diameter of 5 mm. The animals were ventilated by a Harvard Apparatus rodent ventilator (model 683, Harvard Apparatus, South Natick, Mass., USA). The ventilator was supplied with NO-free air using a charcoal filter (110×11 cm). Ventilation rate was 40 min^−1 at constant volume where the tidal volume was initially adjusted to keep the end-tidal CO2 at 4.5-5.3% as determined by a ventilatory monitor (Oscar-Oxy, Datex, Helsinki, Finland) sampling gas (150 ml min^−1, 15-20% of minute ventilation) from one of two side-arms connected to the tracheal cannula, and using a de-humidifying tube. The minute ventilation was 0.64-0.96 l min^−1. To the other side arm a pressure transducer (Statham, Hato Rey, Puerto Rico) was connected thus monitoring the insufflation pressure. The gas from the ventilator outlet was led through a switching valve to either of two beakers creating a positive end-expiratory pressure (PEEP) of 1-2 cmH2O or 4-5 cmH2O. During the experiment the gas flow was altered between the lower PEEP (9 min) and the higher PEEP (1 min) with an interval of totally 10 min. A continuous infusion containing glucose (24.3 g l^−1), dextran 70 (26.5 g l^−1), NaHCO3 (6,2 g l^−1), sodium pentobarbital (4.1 g l^−1) and pancuronium bromide ([…]) was administrated at a rate of 5 ml kg^−1 h^−1 via the same ear vein by means of a Terumo STC-521 syringe pump (Terumo Corp., Tokyo, Japan). A heparinised catheter was inserted in the left common carotid artery for blood pressure and heart rate recordings (pressure transducer, Staham, Hato Rey, Puerto Rico), and arterial blood sampling. Another catheter was inserted in the right jugular vein for drug and muscle emboli administration. Body temperature was maintained at 37-38.5° C. by means of a heating pad connected to a thermostat. The muscles from the anterior compartment of the right lower hind limb were resected and placed in normal saline. Hereafter the animals were allowed a 30-60 min intervention-free period to obtain stable circulatory conditions and stable concentrations of expired NO.
NO concentration, in mixed exhaled gas, was continuously measured by means of a chemiluminescence based system (NIOX®, AEROCRINE AB, Solna, Sweden) sampling at 100 ml min^−1 at the end of a mixing chamber connected to the ventilator exhaust. The full mixing of expired air thus measured on was intermittently checked by monitor CO2 concentration in the same chamber. In a few experiments, gas for NO measurement was sampled from the trachea at the same point as for tidal CO2 measurements, thus yielding breath by breath NO concentrations. Calibration was done using certified NO standard gas in nitrogen (AGA Specialgas, Lidingö, Sweden).
The resected muscle tissue was cleared from all visible connective tissue and then homogenized and dissolved in normal saline to a concentration of 0,1 g muscle ml^−1. 50 IE heparin was added to the mixture. The homogenate was filtered through a filter (500 μm) to prevent clotting in the three way stop-cock.
The animals were divided into two groups; 1) one group receiving a high dose (58-120 mg kg^−1) muscle homogenate and 2) a second group receiving the nitric oxide inhibitor L-NAME (30 mg kg^−1) 40 min before challenge with lower doses (30 to 7.5 mg kg^−1) muscle homogenate, since initial pilot experiments indicated a marked enhancement of emboli effects after L-NAME pre-treatment. […]

The nature of data set [1]: Thrombin infusion as pro-thrombotic challenge. The data set is classed as in vivo, rabbit. As to conditions: thrombin 10-250 Units; when cardiovascular parameters indicated a thrombotic event. On the procedure: Another experiment was performed with infusion of thrombin (10-250 Units) as pro-thrombotic challenge. Also in this experiment, an increase in exhaled NO was obtained when measurement of cardiovascular parameters indicated an activation of a thrombotic event.

Setting [2] is: Group 2, during L-NAME pre-treatment, time -5 min, before challenge.

For the compound `COC(=O)[C@@H](N)CCCNC(=N)N[N+](=O)[O-]` [L-NAME, N^G-nitro-L-arginine methyl ester], in the data set on NO-production (setting [2]), the PaCO2 is 4.3 ± 0.2 kPa, the PaO2 is on record as 8.6 ± 0.6 kPa and the “pH (arterial)” value amounted to 7.50 ± 0.02. Further, the “ETCO2 after L-NAME infusion” value with NO-production (L-NAME 30 mg kg-1, before muscle emboli challenge (time=-5), before L-NAME 4.9±0.1) came out at 4.8±0.2 kPa. Moreover, the “FENO after L-NAME infusion” value in the data set with NO-production (L-NAME 30 mg kg-1, before muscle emboli challenge (time=-5), before L-NAME 20.9±1.0 ppb, n=4) was 0 ppb. For the same compound, in the data set with NO-production (L-NAME 30 mg kg-1, before muscle emboli challenge (time=-5), before L-NAME 105±6), the “MAP after L-NAME infusion” value came out at 121±8.2 cmH2O. For the same compound, the “HR after L-NAME infusion” value in the data set on NO-production (L-NAME 30 mg kg-1, before muscle emboli challenge (time=-5), before L-NAME 286±11) came to 314±34 beats min^-1. In addition, the “ETCO2, lowest observed value” with NO-production (L-NAME 30 mg kg-1 pre-treatment + muscle emboli infusion, at 4 min, n=4 incl. dead animals) amounted to 2.6±1.1 kPa. Besides, the “MAP, first drop” value in the data set on NO-production (L-NAME 30 mg kg-1 pre-treatment + muscle emboli infusion, at 12 min) is given as 52.4±25.5 cmH2O. In addition, the “MAP, lowest observed value” in the data set on NO-production (L-NAME 30 mg kg-1 pre-treatment + muscle emboli infusion, at 60 min) came out at 44.4±29.6 cmH2O. Also, the HR change entry in the data set on NO-production (L-NAME 30 mg kg-1 pre-treatment + muscle emboli infusion, not significant) is listed as “decreased”. Besides, the “Survival after muscle emboli infusion” value with NO-production (L-NAME 30 mg kg-1 pre-treatment, 7.5 to 30 mg kg-1 homogenate, four rabbits) is reported as “two animals survived 60 min”.
On to thrombin, for which, in data set [1], the “exhaled NO change” value is “increase”.
